Measured values from patent US20240216369A1, “THE USE OF A SPLICING MODULATOR FOR A TREATMENT SLOWING PROGRESSION OF HUNTINGTON'S DISEASE” (Novartis AG, priority 2019, published 2024).

Tests used:
tHTT = assay: Mutant and total HTT multiplex HTRF assay in Q48 HTT human embryonic stem cell line: tHTT; assay type: cell-based; details: Q48 HTT hESC, 48 hours
Procedure, shortened: (§1)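 Q48 HTT hESCs from HD donors were treated with compound for 48 h at 37 °C after 24 h adherence, then lysed. Lysates were read by multiplex HTRF with N-terminal donor, polyQ (MW1) and post-polyQ (MAB2166) antibodies for 4-6 h at RT. Donor/acceptor ratios give relative mHTT and tHTT; pIC50 reported.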

mHTT = assay: Mutant and total HTT multiplex HTRF assay in Q48 HTT human embryonic stem cell line: mHTT; assay type: cell-based; details: Q48 HTT hESC, 48 hours
Procedure, shortened: as §1

Row | SMILES | tHTT pIC50 (tHTT) | Rating (based on mHTT potency) (mHTT) | mHTT pIC50 (mHTT)
1 | CCOc1cc(C)nc2cc(O)c(-c3ccc(N(C)C4CC(C)(C)NC(C)(C)C4)nn3)cc12 [Compound 63, 4-ethoxy-2-methyl-6-(6-(methyl(2,2,6,6-tetramethylpiperidin-4-yl)amino)pyridazin-3-yl)quinolin-7-ol] | 6.534 | *** (a pIC50 value between 6.5 and 7.0 is indicated by three stars (***)) | 6.63
2 | CN(c1ccc(-c2cc3ccc(C#N)nc3cc2O)nn1)C1CC(C)(C)NC(C)(C)C1 [Compound 64, 7-hydroxy-6-(6-(methyl(2,2,6,6-tetramethylpiperidin-4-yl)amino)pyridazin-3-yl)quinoline-2-carbonitrile] | 6.5885 | *** (a pIC50 value between 6.5 and 7.0 is indicated by three stars (***)) | 6.5945
3 | COc1cc(-c2cn[nH]c2)c(F)c(F)c1-c1nnc(N(C)C2CC(C)(C)NC(C)(C)C2)s1 [Compound 65, 5-(2,3-difluoro-6-methoxy-4-(1H-pyrazol-4-yl)phenyl)-N-methyl-N-(2,2,6,6-tetramethylpiperidin-4-yl)-1,3,4-thiadiazol-2-amine] | 6.5835 | *** (a pIC50 value between 6.5 and 7.0 is indicated by three stars (***)) | 6.5865
4 | CN(c1ccc(-c2cc3c(cc2O)C(=O)CC3)nn1)C1CC(C)(C)NC(C)(C)C1 [Compound 66, 6-hydroxy-5-(6-(methyl(2,2,6,6-tetramethylpiperidin-4-yl)amino)pyridazin-3-yl)-2,3-dihydro-1H-inden-1-one] | 6.637 | *** (a pIC50 value between 6.5 and 7.0 is indicated by three stars (***)) | 6.5815
5 | COc1ccc(-c2ccc(-c3ccc(N(C)C4CC(C)(C)NC(C)(C)C4)nn3)c(O)c2)cn1 [Compound 67, 5-(6-methoxypyridin-3-yl)-2-(6-(methyl(2,2,6,6-tetramethylpiperidin-4-yl)amino)pyridazin-3-yl)phenol] | 6.452 | *** (a pIC50 value between 6.5 and 7.0 is indicated by three stars (***)) | 6.547
6 | CN(c1ccc(-c2cc3ccc(OCCC(C)(C)O)cc3cc2O)nn1)C1CC(C)(C)NC(C)(C)C1 [Compound 68, 7-(3-hydroxy-3-methylbutoxy)-3-(6-(methyl(2,2,6,6-tetramethylpiperidin-4-yl)amino)pyridazin-3-yl)naphthalen-2-ol] | 6.488 | *** (a pIC50 value between 6.5 and 7.0 is indicated by three stars (***)) | 6.529
7 | CC1CC(Oc2ccc(-c3ccc(-c4cn[nH]c4)cc3O)nn2)CC(C)N1 (stereo not shown) [Compound 69, 2-(6-((2,6-dimethylpiperidin-4-yl)oxy)pyridazin-3-yl)-5-(1H-pyrazol-4-yl)phenol] | 7.089 | **** (a pIC50 value between 7.0 and 7.5 is indicated by four stars (****)) | 7.1525
8 | C[C@@H]1CC(Oc2ccc(-c3ccc(-n4cccn4)cc3O)nn2)C[C@@H](C)N1 (stereo partly drawn) [Compound 70, 2-(6-(((2R,6R)-2,6-dimethylpiperidin-4-yl)oxy)pyridazin-3-yl)-5-(1H-pyrazol-1-yl)phenol] | 5.806 | * (a pIC50 value between 5 and 6 is indicated by a single star (*)) | 5.999
9 | Oc1ccc2cc(-c3ccc(C4CCNCC4)nn3)c(O)cc2c1 [Compound 71, 3-(6-(piperidin-4-yl)pyridazin-3-yl)naphthalene-2,7-diol] | 5.997 | * (a pIC50 value between 5 and 6 is indicated by a single star (*)) | 5.996
10 | CC1(C)CC(Oc2ccc(-c3ccc(-n4cccn4)cc3O)nn2)CCN1 (stereo not shown) [Compound 72, 2-(6-((2,2-dimethylpiperidin-4-yl)oxy)pyridazin-3-yl)-5-(1H-pyrazol-1-yl)phenol] | 6.13 | ** (a pIC50 value between 6 and 6.5 is indicated by two stars (**)) | 6.21
11 | Oc1cc(-c2cn[nH]c2)ccc1-c1ccc(N2C[C@H]3CNC[C@H]3C2)nn1 [Compound 74, 2-(6-((3aR,6aS)-hexahydropyrrolo[3,4-c]pyrrol-2(1H)-yl)pyridazin-3-yl)-5-(1H-pyrazol-4-yl)phenol] | 6.02 | ** (a pIC50 value between 6 and 6.5 is indicated by two stars (**)) | 6.03
12 | COc1cc(-c2cnn(C)c2)ccc1-c1nnc(N2CC3(CCNCC3)C2)s1 [Compound 75, 2-(2-methoxy-4-(1-methyl-1H-pyrazol-4-yl)phenyl)-5-(2,7-diazaspiro[3.5]nonan-2-yl)-1,3,4-thiadiazole] | 6.4335 | ** (a pIC50 value between 6 and 6.5 is indicated by two stars (**)) | 6.4375
13 | CN(c1nnc(-c2ccc(-c3cn[nH]c3)cc2F)s1)C1CC(C)(C)NC(C)(C)C1 [Compound 76, 5-(2-fluoro-4-(1H-pyrazol-4-yl)phenyl)-N-methyl-N-(2,2,6,6-tetramethylpiperidin-4-yl)-1,3,4-thiadiazol-2-amine] | 6.075 | ** (a pIC50 value between 6 and 6.5 is indicated by two stars (**)) | 6.0645
14 | CN(c1nnc(-c2cc3cc(C#N)ccc3s2)s1)C1CC(C)(C)NC(C)(C)C1 [Compound 77, 2-(5-(methyl(2,2,6,6-tetramethylpiperidin-4-yl)amino)-1,3,4-thiadiazol-2-yl)benzo[b]thiophene-5-carbonitrile] | 6.1615 | ** (a pIC50 value between 6 and 6.5 is indicated by two stars (**)) | 6.137
15 | CN(c1nnc(-c2cc3c(cc2O)C(=O)CC3)s1)C1CC(C)(C)NC(C)(C)C1 [Compound 78, 6-hydroxy-5-(5-(methyl(2,2,6,6-tetramethylpiperidin-4-yl)amino)-1,3,4-thiadiazol-2-yl)-2,3-dihydro-1H-inden-1-one] | 6.152 | ** (a pIC50 value between 6 and 6.5 is indicated by two stars (**)) | 6.264
16 | Cc1cc(-c2ccc(-c3nnc(N(C)C4CC(C)(C)NC(C)(C)C4)s3)c(F)c2)[nH]n1 [Compound 79, 5-(2-fluoro-4-(3-methyl-1H-pyrazol-5-yl)phenyl)-N-methyl-N-(2,2,6,6-tetramethylpiperidin-4-yl)-1,3,4-thiadiazol-2-amine] | 6.01 | * (a pIC50 value between 5 and 6 is indicated by a single star (*)) | 5.9315
17 | COc1cc(-c2cn[nH]c2)cc(F)c1-c1nnc(N(C)C2CC(C)(C)NC(C)(C)C2)s1 [Compound 80, 5-(2-fluoro-6-methoxy-4-(1H-pyrazol-4-yl)phenyl)-N-methyl-N-(2,2,6,6-tetramethylpiperidin-4-yl)-1,3,4-thiadiazol-2-amine] | 6.071 | ** (a pIC50 value between 6 and 6.5 is indicated by two stars (**)) | 6.2465
18 | CN(c1ccc(-c2ccc3nccn3c2)nn1)C1CC(C)(C)NC(C)(C)C1 [Compound 81, 6-(imidazo[1,2-a]pyridin-6-yl)-N-methyl-N-(2,2,6,6-tetramethylpiperidin-4-yl)pyridazin-3-amine] | <5 |  | <5
19 | Oc1cc2ccccc2cc1-c1ccc(CC2CCNCC2)nn1 [Compound 82, 3-(6-(piperidin-4-ylmethyl)pyridazin-3-yl)naphthalen-2-ol] | <5 |  | <5
